This note sets out measurements from ChEMBL document CHEMBL5316339, “Discovery of a Series of Substituted 1H-((1,2,3-Triazol-4-yl)methoxy)pyrimidines as Brain Penetrants and Potent GluN2B-Selective Negative Allosteric Modulators” (J Med Chem, 2023).

Series [1] addresses Glutamate receptor ionotropic, NMDA 2B (Rattus norvegicus, UniProt Q00960). In words: Displacement of 3-(3H) 1-(azetidin-1-yl)-2-(6- (4-fluoro-3-methyl-phenyl)pyrrolo-[…] pyridin-1yl)ethanone from GluN2B receptor in rat cortical membrane assessed as inhibition constant incubated for 2 hrs under shaking condition by liquid scintillator counter analysis. Type of series: cell membranes, Cortex.

The next series relates to MDR1 (P-gp). Nature of the series: Efflux ratio of apparent permeability from basolateral to apical side over apical to basolateral side in MDCK-MDR1 cells at 5 uM incubated for 60 mins by LC-MS/MS analysis. The series is classed as ADME, cell-based, Canis lupus familiaris. Particulars: dog.
In series [2] the target is Glutamate NMDA receptor; GRIN1/GRIN2B (Homo sapiens, UniProt Q05586+Q13224). Nature of the series: Negative allosteric modulation of human GluN1A/GluN2B receptor expressed in T-REX-CHO cells preincubated for 5 mins followed by glutamate and glycine addition and measured after 5 mins by FLIPR assay. Type of series: cell-based.
Series [3] in a line: Thermodynamic solubility in aqueous phosphate buffer at pH 2. Particulars: read-out: Therm_solubility. The series is classed as physicochemical.
Series [4] is described as follows: Thermodynamic solubility in aqueous phosphate buffer at pH 7. Type of series: physicochemical. As to conditions: read-out: Therm_solubility.
Series [5] deals with Voltage-gated inwardly rectifying potassium channel KCNH2 (Homo sapiens, UniProt Q12809). Nature of the series: Displacement of [3H]dofetilide from human ERG expressed in HEK293 cells. The series is classed as toxicity, cell-based. (In general: Loss of bound radioactivity is the signal in a displacement assay; it reports binding, not function.)
For the next series, the target named is Cytochrome P450 2C19 (Homo sapiens, UniProt P33261). Nature of the series: Inhibition of CYP2C19 in human liver microsomes incubated for 10 mins by LC-MS/MS analysis. Type of series: ADME, Microsome. For orientation: Microsomes from liver hold many membrane-bound enzymes, among them those of drug oxidation.
A further series concerns the target Cytochrome P450 2C9 (Homo sapiens, UniProt P11712). Nature of the series: Inhibition of CYP2C9 in human liver microsomes incubated for 10 mins by LC-MS/MS analysis. The series is classed as ADME, Microsome.
The target in another series is Cytochrome P450 2D6 (Homo sapiens, UniProt P10635). In words: Inhibition of CYP2D6 in human liver microsomes incubated for 10 mins by LC-MS/MS analysis. The series is classed as ADME, Microsome.
Another series has as its target T1, Cytochrome P450 2C8 (Homo sapiens, UniProt P10632).
T1 sequence (P10632 whole entry): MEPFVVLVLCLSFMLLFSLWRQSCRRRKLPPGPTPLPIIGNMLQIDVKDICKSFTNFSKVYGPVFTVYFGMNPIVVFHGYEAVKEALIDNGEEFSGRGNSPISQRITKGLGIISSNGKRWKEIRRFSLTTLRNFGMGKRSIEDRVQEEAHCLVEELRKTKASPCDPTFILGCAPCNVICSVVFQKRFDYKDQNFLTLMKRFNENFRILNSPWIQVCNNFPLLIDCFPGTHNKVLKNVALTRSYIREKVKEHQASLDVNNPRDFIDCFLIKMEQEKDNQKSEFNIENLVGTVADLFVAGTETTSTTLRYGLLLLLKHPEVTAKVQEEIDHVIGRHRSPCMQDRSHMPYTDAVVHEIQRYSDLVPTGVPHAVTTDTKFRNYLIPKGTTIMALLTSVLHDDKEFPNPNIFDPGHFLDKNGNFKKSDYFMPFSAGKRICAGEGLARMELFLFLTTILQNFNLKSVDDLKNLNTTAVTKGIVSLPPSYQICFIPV
Nature of the series: Inhibition of CYP2C8 in human liver microsomes incubated for 10 mins by LC-MS/MS analysis. Type of series: ADME, Microsome.

The next series deals with Cytochrome P450 3A4 (Homo sapiens, UniProt P08684). Nature of the series: Inhibition of CYP3A4 in human liver microsomes incubated for 10 mins by LC-MS/MS analysis. Type of series: ADME, Microsome.
A further series concerns the target T2, Cytochrome P450 1A2 (Homo sapiens, UniProt P05177).
T2 sequence (P05177 whole entry): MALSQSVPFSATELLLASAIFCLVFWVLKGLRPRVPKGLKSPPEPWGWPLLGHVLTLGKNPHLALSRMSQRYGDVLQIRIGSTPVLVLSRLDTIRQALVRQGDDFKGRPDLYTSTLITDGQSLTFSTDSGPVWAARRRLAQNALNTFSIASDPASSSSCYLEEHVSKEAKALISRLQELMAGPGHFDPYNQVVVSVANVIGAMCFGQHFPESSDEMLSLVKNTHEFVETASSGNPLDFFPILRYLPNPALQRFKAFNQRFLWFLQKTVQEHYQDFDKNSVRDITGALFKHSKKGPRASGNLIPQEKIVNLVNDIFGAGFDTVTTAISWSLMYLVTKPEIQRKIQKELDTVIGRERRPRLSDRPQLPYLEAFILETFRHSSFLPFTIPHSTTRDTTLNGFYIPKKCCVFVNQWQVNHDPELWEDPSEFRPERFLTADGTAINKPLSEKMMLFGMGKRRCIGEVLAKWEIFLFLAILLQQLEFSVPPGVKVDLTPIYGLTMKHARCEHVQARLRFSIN
Nature of the series: Inhibition of CYP1A2 in human liver microsomes incubated for 10 mins by LC-MS/MS analysis. Type of series: ADME, Microsome.

Series [6] in a line: Metabolic stability in human liver microsomes assessed as extraction ratio. Type of series: ADME, Microsome. As to conditions: read-out: ERH.
Series [7] can be described thus: Metabolic stability in rat liver microsomes assessed as extraction ratio. The series is classed as ADME, Microsome. As to conditions: read-out: ERH.

The term Ki denotes a dissociation constant, usually derived from enzyme kinetics or from competition with a known ligand. As usually defined, the efflux ratio is the permeability from basolateral to apical divided by that in the opposite direction, in the common usage. Broadly, the IC50 is the concentration needed to halve the response being measured. Low readings indicate greater potency, high ones weaker potency.

Converted amounts (≈) assume the structure as drawn. Some results are limits rather than exact numbers.

Chain of Glutamate NMDA receptor; GRIN1/GRIN2B (Q13224 whole entry, other chains not shown): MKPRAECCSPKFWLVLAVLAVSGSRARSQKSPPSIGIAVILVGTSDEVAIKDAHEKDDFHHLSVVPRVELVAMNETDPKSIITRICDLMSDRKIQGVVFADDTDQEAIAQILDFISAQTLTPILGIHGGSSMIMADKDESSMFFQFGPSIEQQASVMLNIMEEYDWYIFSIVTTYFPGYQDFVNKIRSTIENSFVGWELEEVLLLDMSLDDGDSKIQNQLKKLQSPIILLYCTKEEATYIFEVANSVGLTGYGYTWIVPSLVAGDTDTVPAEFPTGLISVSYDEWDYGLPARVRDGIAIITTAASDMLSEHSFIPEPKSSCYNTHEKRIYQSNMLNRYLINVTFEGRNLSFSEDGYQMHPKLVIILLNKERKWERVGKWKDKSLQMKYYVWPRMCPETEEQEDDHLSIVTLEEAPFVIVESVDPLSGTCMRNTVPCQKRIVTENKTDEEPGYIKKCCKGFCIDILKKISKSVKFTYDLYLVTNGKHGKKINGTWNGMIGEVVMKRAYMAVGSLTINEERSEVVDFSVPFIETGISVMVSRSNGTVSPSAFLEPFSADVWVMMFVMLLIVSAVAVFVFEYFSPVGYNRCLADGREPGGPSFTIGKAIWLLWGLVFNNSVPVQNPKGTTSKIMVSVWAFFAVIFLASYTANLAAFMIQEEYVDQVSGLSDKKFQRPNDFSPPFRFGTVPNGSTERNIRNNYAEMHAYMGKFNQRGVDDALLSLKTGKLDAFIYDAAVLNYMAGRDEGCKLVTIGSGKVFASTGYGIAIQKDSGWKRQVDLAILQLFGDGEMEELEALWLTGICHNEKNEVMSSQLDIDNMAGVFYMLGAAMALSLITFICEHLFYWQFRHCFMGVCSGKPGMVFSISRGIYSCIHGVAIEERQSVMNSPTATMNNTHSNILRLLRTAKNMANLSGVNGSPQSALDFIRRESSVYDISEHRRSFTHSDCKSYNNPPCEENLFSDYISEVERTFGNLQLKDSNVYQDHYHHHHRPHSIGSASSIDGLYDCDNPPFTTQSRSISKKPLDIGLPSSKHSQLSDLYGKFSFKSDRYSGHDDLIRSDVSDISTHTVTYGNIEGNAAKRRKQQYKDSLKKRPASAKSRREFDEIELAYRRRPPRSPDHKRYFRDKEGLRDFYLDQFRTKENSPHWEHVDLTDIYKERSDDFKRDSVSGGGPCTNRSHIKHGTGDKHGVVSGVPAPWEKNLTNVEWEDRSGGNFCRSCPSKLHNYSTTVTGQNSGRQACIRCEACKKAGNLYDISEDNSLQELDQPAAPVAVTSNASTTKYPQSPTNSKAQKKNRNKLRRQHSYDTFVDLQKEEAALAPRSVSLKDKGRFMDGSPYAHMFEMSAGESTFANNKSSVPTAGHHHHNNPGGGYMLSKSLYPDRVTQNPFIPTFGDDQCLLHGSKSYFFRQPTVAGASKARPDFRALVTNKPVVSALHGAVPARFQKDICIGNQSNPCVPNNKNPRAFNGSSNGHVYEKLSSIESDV
Chain of Cytochrome P450 2C19 (P33261 whole entry): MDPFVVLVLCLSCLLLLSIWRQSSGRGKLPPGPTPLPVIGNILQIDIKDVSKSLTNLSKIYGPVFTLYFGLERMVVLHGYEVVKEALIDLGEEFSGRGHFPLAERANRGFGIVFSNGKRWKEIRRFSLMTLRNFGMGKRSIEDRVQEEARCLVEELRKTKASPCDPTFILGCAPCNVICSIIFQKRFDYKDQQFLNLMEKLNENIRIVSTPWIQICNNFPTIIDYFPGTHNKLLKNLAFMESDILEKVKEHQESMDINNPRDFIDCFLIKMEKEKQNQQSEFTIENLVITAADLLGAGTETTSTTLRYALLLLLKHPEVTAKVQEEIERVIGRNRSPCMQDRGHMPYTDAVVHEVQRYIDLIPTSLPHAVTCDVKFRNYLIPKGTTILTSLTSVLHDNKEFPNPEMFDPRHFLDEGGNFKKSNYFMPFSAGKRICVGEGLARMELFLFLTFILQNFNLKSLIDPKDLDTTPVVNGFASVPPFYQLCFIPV
Chain of Voltage-gated inwardly rectifying potassium channel KCNH2 (Q12809 whole entry): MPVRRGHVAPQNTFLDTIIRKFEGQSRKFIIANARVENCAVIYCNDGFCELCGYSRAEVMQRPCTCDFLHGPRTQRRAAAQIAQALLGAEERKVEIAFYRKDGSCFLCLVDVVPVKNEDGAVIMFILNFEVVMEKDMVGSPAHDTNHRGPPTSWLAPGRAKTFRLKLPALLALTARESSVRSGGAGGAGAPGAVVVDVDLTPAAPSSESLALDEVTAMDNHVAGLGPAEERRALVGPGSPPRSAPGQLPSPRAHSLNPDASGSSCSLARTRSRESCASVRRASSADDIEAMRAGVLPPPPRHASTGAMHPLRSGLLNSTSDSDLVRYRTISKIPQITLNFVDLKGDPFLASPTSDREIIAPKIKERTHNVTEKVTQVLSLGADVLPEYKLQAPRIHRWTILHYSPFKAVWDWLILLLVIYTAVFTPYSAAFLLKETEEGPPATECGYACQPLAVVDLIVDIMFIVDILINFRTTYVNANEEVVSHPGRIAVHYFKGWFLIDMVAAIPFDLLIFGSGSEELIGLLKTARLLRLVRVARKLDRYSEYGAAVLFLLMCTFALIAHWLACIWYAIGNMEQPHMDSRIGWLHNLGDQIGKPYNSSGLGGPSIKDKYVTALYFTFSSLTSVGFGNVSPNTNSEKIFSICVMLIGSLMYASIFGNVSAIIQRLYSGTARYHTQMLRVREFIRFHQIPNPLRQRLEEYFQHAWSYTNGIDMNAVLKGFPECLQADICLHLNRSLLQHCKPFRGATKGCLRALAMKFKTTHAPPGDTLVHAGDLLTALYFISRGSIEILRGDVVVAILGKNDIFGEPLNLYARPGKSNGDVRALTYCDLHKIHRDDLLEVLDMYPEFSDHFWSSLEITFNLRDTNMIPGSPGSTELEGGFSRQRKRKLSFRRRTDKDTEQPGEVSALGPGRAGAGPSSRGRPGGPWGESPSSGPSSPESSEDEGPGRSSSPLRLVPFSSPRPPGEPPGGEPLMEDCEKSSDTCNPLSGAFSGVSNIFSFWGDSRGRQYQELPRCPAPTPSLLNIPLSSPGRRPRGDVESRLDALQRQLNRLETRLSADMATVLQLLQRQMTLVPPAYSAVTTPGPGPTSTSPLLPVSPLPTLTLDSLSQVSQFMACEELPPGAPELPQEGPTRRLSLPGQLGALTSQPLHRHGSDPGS
Chain of Cytochrome P450 2D6 (P10635 whole entry): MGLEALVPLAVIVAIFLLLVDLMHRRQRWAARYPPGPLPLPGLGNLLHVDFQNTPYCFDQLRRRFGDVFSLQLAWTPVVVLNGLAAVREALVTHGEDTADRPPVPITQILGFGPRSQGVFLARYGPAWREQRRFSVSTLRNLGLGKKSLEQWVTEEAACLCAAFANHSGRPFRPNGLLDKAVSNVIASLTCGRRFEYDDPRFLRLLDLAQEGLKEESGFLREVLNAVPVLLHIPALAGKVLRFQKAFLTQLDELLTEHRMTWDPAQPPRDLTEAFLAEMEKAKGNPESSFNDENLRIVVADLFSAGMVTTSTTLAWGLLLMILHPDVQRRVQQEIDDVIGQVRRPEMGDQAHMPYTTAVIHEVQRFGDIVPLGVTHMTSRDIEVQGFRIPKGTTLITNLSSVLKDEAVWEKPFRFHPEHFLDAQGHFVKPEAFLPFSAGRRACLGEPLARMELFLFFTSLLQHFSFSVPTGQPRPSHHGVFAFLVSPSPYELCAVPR
Chain of Glutamate receptor ionotropic, NMDA 2B (Q00960 whole entry): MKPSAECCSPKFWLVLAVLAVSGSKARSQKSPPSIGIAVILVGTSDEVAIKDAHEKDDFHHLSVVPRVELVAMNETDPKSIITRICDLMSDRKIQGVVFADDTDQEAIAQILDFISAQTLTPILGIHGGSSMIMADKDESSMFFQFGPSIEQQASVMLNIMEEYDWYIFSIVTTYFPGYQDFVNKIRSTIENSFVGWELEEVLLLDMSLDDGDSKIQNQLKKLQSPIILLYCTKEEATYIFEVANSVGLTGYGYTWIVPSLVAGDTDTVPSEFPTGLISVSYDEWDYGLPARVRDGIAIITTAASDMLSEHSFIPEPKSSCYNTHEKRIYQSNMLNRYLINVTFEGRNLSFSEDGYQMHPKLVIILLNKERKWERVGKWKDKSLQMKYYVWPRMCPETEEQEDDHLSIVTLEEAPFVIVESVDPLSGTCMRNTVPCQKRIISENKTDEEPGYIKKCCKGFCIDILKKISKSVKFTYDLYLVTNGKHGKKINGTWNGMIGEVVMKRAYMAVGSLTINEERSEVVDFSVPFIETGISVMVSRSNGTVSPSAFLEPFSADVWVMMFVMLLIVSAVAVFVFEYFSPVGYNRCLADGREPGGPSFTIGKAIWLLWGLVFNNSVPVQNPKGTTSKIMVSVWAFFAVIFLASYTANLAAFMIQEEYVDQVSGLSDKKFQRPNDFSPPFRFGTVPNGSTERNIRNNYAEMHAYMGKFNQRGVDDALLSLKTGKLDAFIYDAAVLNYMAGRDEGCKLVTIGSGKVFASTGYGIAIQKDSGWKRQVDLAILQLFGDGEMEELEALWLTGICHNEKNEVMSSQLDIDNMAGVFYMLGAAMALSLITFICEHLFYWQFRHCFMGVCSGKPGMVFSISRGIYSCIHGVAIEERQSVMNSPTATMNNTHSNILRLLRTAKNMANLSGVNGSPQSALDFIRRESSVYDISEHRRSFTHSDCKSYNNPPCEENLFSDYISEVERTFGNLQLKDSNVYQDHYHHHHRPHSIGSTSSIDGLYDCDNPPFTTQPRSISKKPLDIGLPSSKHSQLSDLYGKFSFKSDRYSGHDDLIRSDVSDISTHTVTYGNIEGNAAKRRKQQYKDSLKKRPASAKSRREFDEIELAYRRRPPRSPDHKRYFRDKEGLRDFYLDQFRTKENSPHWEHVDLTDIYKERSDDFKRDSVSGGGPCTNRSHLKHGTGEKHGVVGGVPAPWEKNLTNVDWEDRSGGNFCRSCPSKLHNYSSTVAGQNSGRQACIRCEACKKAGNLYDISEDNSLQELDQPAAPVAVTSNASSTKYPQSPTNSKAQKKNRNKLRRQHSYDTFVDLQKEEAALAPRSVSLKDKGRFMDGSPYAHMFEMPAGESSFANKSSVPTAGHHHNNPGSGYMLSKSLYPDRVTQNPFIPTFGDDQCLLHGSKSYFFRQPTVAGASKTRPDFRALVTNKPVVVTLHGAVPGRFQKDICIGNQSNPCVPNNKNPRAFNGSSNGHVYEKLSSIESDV

On to `FC(F)Oc1cc(-n2cc(COc3ccncn3)nn2)ccc1Cl`, for which the Ki in series [1] amounted to 0.9 µM. Moreover, the efflux ratio at 1 h, 5 µM with MDR1 (P-gp) worked out at 1.1. The molecule further yielded an IC50 in [2] of 0.84 µM.
For `Cc1ccnc(OCc2cn(-c3ccc(F)c(OC(F)F)c3)nn2)n1`, the Ki in series [1] turned out to be 0.013 µM. Further, the solubility thermodynamic in series [3] stood at 92 µM (≈ 32.3 µg/mL); in series [4], 70 µM (≈ 24.6 µg/mL). For the same molecule, the efflux ratio at 1 h, 5 µM in the series on MDR1 (P-gp) came to 0.9. Besides, the IC50 in series [2] is 0.0083 µM; in [5], greater than 10 µM.
In the case of `Cc1cnc(OCc2nnn(-c3cccc(C(F)F)c3)c2C)nc1`, the Ki in series [1] was determined as 3.5 µM. In addition, the solubility thermodynamic came out at 210 µM (≈ 69.6 µg/mL) in series [3] and 320 µM (≈ 106 µg/mL) in [4]. This molecule also gave an IC50 in series [2] of 1.2 µM.
For the molecule `FC(F)Oc1cc(-n2cc(CNc3ncccn3)nn2)ccc1Cl`, the Ki in [1] was determined as 0.56 µM. Moreover, the half-maximal inhibitory concentration (IC50) at Cytochrome P450 2C19 is greater than 10 µM; against Cytochrome P450 2C9, greater than 10 µM; against Cytochrome P450 2D6, greater than 10 µM; at Cytochrome P450 2C8 it was greater than 10 µM; against Cytochrome P450 3A4, greater than 10 µM; in series [2] it was 0.36 µM. The IC50 (at Cytochrome P450 1A2; in [5]) was greater than 10 µM in each case. Moreover, in the series on MDR1 (P-gp), the efflux ratio at 1 h, 5 µM turned out to be 1.1.
Turning to `Fc1cccnc1OCc1cn(C2CCC(Cl)C(OC(F)F)C2)nn1` (stereo not drawn), the Ki in [1] amounted to 0.889 µM. For the same molecule, the IC50 at Cytochrome P450 2C19 came to 5.3 µM; against Cytochrome P450 2D6, 2.2 µM; in series [2] it was 0.13 µM; against Cytochrome P450 1A2 it was 5.2 µM.
As to `FC(F)Oc1cc(-n2cc(COc3cccnn3)nn2)ccc1Cl`, the inhibitory constant (Ki) in series [1] was 1.87 µM. Also, the half-maximal inhibitory concentration (IC50) in series [2] was determined as 0.58 µM.
Consider `Cc1cnc(OCc2cn(-c3ccc(Cl)c(OC(F)F)c3)nn2)nc1`, for which, in series [1], the Ki worked out at 0.0013 µM. For the same molecule, the hepatic extraction ratio was found to be 0.83 in series [6] and 0.51 in [7]. The figures for the IC50 in [2] and in [5] were 0.0019 µM and 5.6 µM, respectively.
Consider `Nc1nc(OCc2cn(-c3ccc(F)c(OC(F)F)c3)nn2)ncc1F`, for which the Ki in [1] came to 0.044 µM. Further, the solubility thermodynamic in series [3] amounted to 560 µM (≈ 207 µg/mL); in series [4], 28 µM (≈ 10.4 µg/mL). The efflux ratio at 1 h, 5 µM with MDR1 (P-gp) came to 3. For the same molecule, the IC50 in [2] was 0.016 µM; in series [5], greater than 10 µM.
For the molecule `Cc1cnc(OCc2cn(-c3cccc(C(F)F)c3)nn2)nc1`, the Ki in series [1] stood at 0.065 µM. The solubility thermodynamic in [3] is 17 µM (≈ 5.39 µg/mL); in series [4], 22 µM (≈ 6.98 µg/mL). In addition, the IC50 is 0.025 µM in [2] and greater than 10 µM in [5].
On to `FC(F)Oc1cc(-n2cc(CNc3ncco3)nn2)ccc1Cl`, for which the inhibition constant Ki in series [1] came out at 0.81 µM. Also, the efflux ratio at 1 h, 5 µM in the series on MDR1 (P-gp) was found to be 1.5. Besides, the results for the IC50 (in series [2]; on Cytochrome P450 1A2; in series [5]) were 0.39 µM, 3.4 µM and greater than 10 µM, respectively.
Consider `CC(C)(O)c1cnc(OCc2cn(-c3ccc(F)c(OC(F)F)c3)nn2)nc1`, for which, in [1], the Ki turned out to be 0.057 µM. Further, the values for the solubility thermodynamic in series [3] and in series [4] were 560 µM (≈ 221 µg/mL) and 510 µM (≈ 202 µg/mL), respectively. For the same molecule, in the series on MDR1 (P-gp), the efflux ratio at 1 h, 5 µM turned out to be 11.8. Also, the figures for the 50% inhibitory concentration (IC50) in [2] and in [5] were 0.049 µM and greater than 10 µM, respectively.
Turning to `FC(F)Oc1cc(-n2cc(CNc3ccccn3)nn2)ccc1Cl`, in [1], the Ki turned out to be 0.63 µM. Further, the 50% inhibitory concentration (IC50) was determined as 7.9 µM against Cytochrome P450 2C19, 0.5 µM in series [2] and 8 µM in series [5]. Moreover, the efflux ratio at 1 h, 5 µM in the series on MDR1 (P-gp) turned out to be 1.
Turning to `FC(F)Oc1cc(-n2cc(COc3cnccn3)nn2)ccc1Cl`, the Ki in series [1] came to 0.68 µM. Further, the efflux ratio at 1 h, 5 µM with MDR1 (P-gp) was found to be 0.91. Further, the IC50 in [2] came to 0.6 µM.
Consider `FC(F)Oc1cc(-n2cc(Cn3ccnc3)nn2)ccc1Cl`, for which the inhibition constant Ki in [1] amounted to 0.035 µM. Also, the IC50 against Cytochrome P450 2C19 was 0.42 µM; against Cytochrome P450 2C9 it was 1.1 µM; on Cytochrome P450 2D6, 0.03 µM; against Cytochrome P450 2C8, 3.4 µM; against Cytochrome P450 3A4, 2.6 µM; in [2], 0.059 µM. Also, the concentration for half-maximal inhibition (IC50) is 0.11 µM at Cytochrome P450 1A2 and greater than 10 µM in [5]. Further, in the series on MDR1 (P-gp), the efflux ratio at 1 h, 5 µM stood at 3.9.
Regarding `CNc1ccnc(OCc2cn(-c3ccc(F)c(OC(F)F)c3)nn2)n1`, in series [1], the Ki came to 0.01 µM. In addition, the solubility thermodynamic is greater than 400 µM in series [3] and 24 µM (≈ 8.79 µg/mL) in [4]. In addition, in the series on MDR1 (P-gp), the efflux ratio at 1 h, 5 µM stood at 7.7. Also, the IC50 in series [2] is 0.0078 µM; in [5] it was greater than 10 µM.
Take `FC(F)Oc1cc(-n2cc(COc3cncnc3)nn2)ccc1Cl`: the Ki in [1] is 1.8 µM. Moreover, in [2], half-maximal inhibition (IC50) required 2.5 µM.
For `C[C@@H](Oc1ncccn1)c1cn(-c2ccc(Cl)c(OC(F)F)c2)nn1`, the Ki in series [1] was 0.067 µM. The results for the hepatic extraction ratio in series [6] and in series [7] were 0.59 and less than 0.17, respectively.
As to `Cc1cnc(OCc2cn(-c3ccnc(C)c3)nn2)nc1`, the Ki in series [1] was found to be 1.9 µM. Besides, the solubility thermodynamic in series [3] is 560 µM (≈ 158 µg/mL); in series [4], 530 µM (≈ 150 µg/mL). In addition, in the series with MDR1 (P-gp), the efflux ratio at 1 h, 5 µM amounted to 1.2. Moreover, the IC50 in series [2] was 0.77 µM.
With `Fc1ccc(-n2cc(COc3nccc(N4CC(F)C4)n3)nn2)cc1OC(F)F`, the Ki in series [1] is 0.014 µM. Also, the solubility thermodynamic is greater than 400 µM in series [3] and less than 4 µM in [4]. Besides, in the series with MDR1 (P-gp), the efflux ratio at 1 h, 5 µM is 2.6. Further, the IC50 in [2] is 0.016 µM; in [5], greater than 10 µM.
As to `Fc1ccc(-n2cc(COc3ncc(N4CCC4)cn3)nn2)cc1OC(F)F`, the inhibition constant (Ki) in series [1] was determined as 0.0068 µM. The values for the solubility thermodynamic in series [3] and in [4] were 11 µM (≈ 4.32 µg/mL) and less than 4 µM, respectively. For the same molecule, the efflux ratio at 1 h, 5 µM in the series with MDR1 (P-gp) was determined as 1. Further, the IC50 in series [2] is 0.011 µM; in series [5] it was greater than 10 µM.
